In assay [1] the test system is E. coli clinical strain UT189. Nature of the assay: Inhibition of biofilm formation, crystal violet, 96 well plates. The class given is cell-based. The note with it: Escherichia coli; 20 ug/ml; read-out: inhibited biofilm formation of the UT189 strain. As to the method: Biofilm inhibition experiments were conducted using an assay adapted from the reported protocol described in Pratt and Kolter, 1998, Molecular Microbiology, 30: 285-293; Li et al., 2001, J. Bacteriol., 183: 897-908. E. coli clinical strain UT189 was grown in LB in 96 well plates at room temperature for one or two days without shaking. E. coli laboratory strain JM109 was grown in LB plus 0.2% glucose in 96 well plates at room temperature for one day without shaking. To quantify the biofilm mass, the suspension culture was poured out and the biofilm was washed three times with water. The biofilm was stained with 0.1% crystal violet for 20 minutes. The plates were then washed three times with water. OD reading at 540 nm was measured to quantify the biofilm mass at the bottom of the wells. Then 95% ethanol was added to dissolve the dye at the bottom and on the wall and the OD reading at 540 nm was measured to quantify the total biofilm mass. To study the overall effect of the compounds (3.6 mg/mL in 100% ethanol as stock solution), it was added with the inoculation and a time course of biofilm mass was measured. Appropriate amounts of 100% ethanol were added to each sample to eliminate the effect of solvent. Each condition had 3-4 replicates on each plate and was performed over multiple days.

The test system of assay [2] is E. coli clinical strain UT189 against bladder epithelial cells. The experiment in a line: Binding to and invasion of bladder epithelial cells by E. coli. The class given is cell-based. As to the method:
The effect of test compounds on bacterial invasion of E. coli clinical strain UT189 was studied as described in Elsinghorst, et al. 1994, Methods Enzymol, 236:405-420; and Martinez et al., 2000, EMBO J., 19:2803-2812. Epithelial bladder cells were grown in plates. Asiatic acid, corosolic acid, or ursolic acid were added at concentrations of 10 μg/ml, 20 μg/ml, or 40 μg/ml to bacteria and epithelial cells for approximately 5, 15, 30, or 60 minutes with approximately 10^7 CFU of E. coli. Binding was assessed at time zero and invasion was assessed at approximately 5, 15, 30, or 60 minutes from completing the mixture of compound, bacteria, and epithelial cells. As a control ethanol was added to cells to a final concentration of 0.1%. The effect of bacterial viability and bacterial adherence during the infection period was evaluated according to the methods described in Martinez et al., 2000, EMBO J., 19:2803-2812.

For assay [3], the system named is E. coli UT189[pCOMGFP]. The experiment in a line: Biofilm pods (IBCs) in bladders of infected mice, intravesical compound, confocal microscopy. The class given is in vivo, Escherichia coli. The settings on record: vs controls. As to the method: The procedures in this example has been previously reported by Justice, S. et al. Differentiation and development pathways of uropathogenic Escherichia coli in urinary tract pathogenesis. PNAS, 2004, 101(5), p. 1333-1338. Briefly, E. coli UT189[pCOMGFP] was prepared after retrieval from frozen stocks by inoculating appropriately in LB medium statically for approximately 20 hours. Cells were harvested and suspended in 1 ml of PBS. Cells were diluted appropriately to achieve approximately a 10^8 CFU or 10^7 CFU input into C3H/HeN mice (2 mice per group).
Mice were deprived of water for approximately two hours. In experiment 1, all mice were anesthetized with 0.15 cc ketamine cocktail. In experiment 2, all mice were anesthetized with isofluorane. In experiment 1, urine was dispelled from the bladders and approximately 40 μg/ml of test compound or an appropriate amount of ethanol as control was introduced into the bladders via catheterization of the urethra using a tubing coated tuberculin syringe. 30 minutes was allowed to elapse. In experiment 2, bladders were not pre-incubated with test compounds. Bladders were then expelled and an inoculum of 10^8 CFU (Experiment 1) or 10^7 CFU (Experiment 2) of E. coli containing 40 μg/ml of test compound or equivalent amount of ethanol as controls were introduced into the bladders as indicated above.
In experiment 1 five hours elapsed and in experiment 2 six hours elapsed, and then mice were anesthetized and sacrificed appropriately. The bladders were removed, bisected, stretched, and fixed in 3% paraformaldehyde for 1 hour at room temperature. Bladders were then permeabilized in 0.01% Triton/PBS for 10 minutes and counter stained with TOPRO3 (Molecular Probes) for 10 minutes for visualization by confocal microscopy. Bladders were mounted on Prolong antifade (Molecular Probes).

Assay [4] has as its system P. aeruginosa strain PAO1. The experiment in a line: Rotating disk reactor (RDR) biofilm test with and without tobramycin, culturable bacteria. The class given is cell-based, Pseudomonas aeruginosa. How it is done: Biofilm formation of P. aeruginosa was evaluated using a standardized biofilm method with a rotating disk reactor (RDR). This method provides a model resembling the formation of biofilms in cystic fibrosis patients. The rotating disk reactor consists of a one-liter glass beaker fitted with a drain spout. The bottom of the vessel contains a magnetically driven rotor with six 1.27 cm diameter coupons constructed from polystyrene. The rotor consists of a star-head magnetic stir bar upon which a disk was affixed to hold the coupons. The vessel with the stir bar was placed on a stir plate and rotated to provide fluid shear. A nutrient solution (AB Trace Medium with 0.3 mM glucose, see Table 3 below for composition) was added through a stopper in the top of the reactor at a flow rate of 5 ml/min. The reactor volume was approximately 180 ml and varied slightly between reactors depending on the placement of the drain spout and the rotational speed of the rotor. At a volume of 180 ml, the residence time of the reactors was 36 minutes. The reactors were operated at room temperature (c.a. 26° C.).
For each test, two RDRs were operated in parallel with one receiving test compound and the other serving as an untreated control. The RDRs were sterilized by autoclave, then filled with sterile medium and inoculated with P. aeruginosa strain PAO1. The reactors were then incubated at room temperature in batch mode (no medium flow) for a period of 24 hours, after which the flow was initiated for a further 24 hour incubation. Test compounds were dissolved in 10 ml ethanol to achieve a concentration of 1.8 mg/ml. After the 48 hours of biofilm development described above, the 10 ml of ethanol containing the test compounds were added to the reactor to achieve a final concentration of approximately 50, 100, or 200 μg/ml. Control reactors received 10 ml of ethanol. The reactors were then incubated for an additional 24 hours in batch (no flow) mode. After this incubation period, the six coupons were removed from each reactor and placed in 12-well polystyrene tissue culture plates with wells containing either 2 ml of a 100 μg/ml tobramycin solution or 2 ml of phosphate-buffered saline (PBS). These plates were incubated at room temperature for two hours. The coupons were then rinsed by three transfers to plates containing 2 ml of fresh PBS. For each two RDR reactors run in parallel, four sets of three coupons were obtained: one set with no test compound treatment and no tobramycin treatment, one set with no test compound treatment and tobramycin treatment, one set treated with a test compound treatment and no tobramycin treatment, and one set treated with a test compound treatment and tobramycin. After rinsing, one coupon of each set of three was stained with a LIVE/DEAD® BacLight™ Bacterial Viability Kit (Molecular Probes, Eugene Oreg.) and imaged using epifluorescent microscopy. The remaining two coupons were placed in 10 ml of PBS and sonicated for five minutes to remove and disperse biofilm cells. The resulting bacterial suspensions were then serially diluted in PBS and plated on tryptic soy agar plates for enumeration of culturable bacteria. The plates were incubated for 24 hours at 37° C. before colony forming units (CFU) were determined.
The results are averages from experiments performed on three separate days for each test compound. The values reported are as loglo CFU.

The subject of assay [5] is Pseudomonas aeruginosa PA01. Nature of the assay: Inhibition of biofilm formation and growth, 96-well plates, crystal violet. The class given is cell-based. The note with it: for inhibited biofilm formation of P. aeruginosa PAO1: approximately 10 ug/ml, compared to the controls; for inhibitory effect on the growth of P. aeruginosa PA01: compared to controls. How it is done: An overnight culture of P. aeruginosa PA01 in LB+1% citrate was prepared. It was incubated at 37° C. shaker for 24 hours. A 1:20 dilution of the overnight culture was prepared. Test compounds are diluted appropriately with a volume of ethanol followed by shaking for approximately 5 minutes and then diluted with an appropriate volume of water.
Replicate 96-well plates are prepared, preferably two to four replicates, with appropriately diluted overnight culture and test compound in each well. Preferably, test compounds are prepared at 10 to 30 micrograms per milliliter. On each 96-well plate controls are appropriately prepared with at least one set of controls consisting of overnight culture and ethanol/water diluent and another set of controls consisting of growth media and ethanol/water diluent. Plates are covered with foil at room temperature and shaken for approximately 24 hours.
After shaking absorbance of the wells of the plates are determined, preferably at 630 nanometers. Liquid is than aspirated out of the wells and each well is filled with diluted crystal violet, preferably approximately 250 microliters of a 1:4 dilution, and allowed to stand for approximately 10 minutes. Each well of the plate is washed, preferably four times, with PBS with approximately one minute between each wash. After the final wash is aspirated out, the plate may be turned over onto paper towels to dump out excess PBS. 95% ethanol is added to each well, preferably 250 microliters. Absorbance of each well of a plate is determined, preferably at 540 nm. Preferably slight shaking is performed during the absorbance reading for approximately 5 minutes. Each well of the plate is than diluted […] with ethanol in a separate plate, preferably 145 ul of 95% ethanol and 5 uL from the original plate, and absorbance is determined. Preferably, slight shaking for approximately 3 minutes is performed.
Biofilm inhibition in each well is determined by subtracting the absorbance of the wells with test compounds from wells with controls containing overnight culture subtracting out controls with only media. A typical positive result of biofilm inhibition confirmed with replicates would be 30 percent to 80 percent less biofilm in the wells with test compound compared to the wells with controls of overnight culture.

Assay [6] relates to methicillin-resistant Staphylococcus aureus. The settings on record: cited from earlier work.

Results on eight compounds are retold here after patent publication US20070014739A1, “Compositions and methods for controlling biofilms and bacterial infections” (priority 2005, published 2007).

Where “and” joins values, the source holds several entries; their conditions need not be identical. Identical values can stand only once.

With `C[C@@H]1CC[C@]2(C(=O)O)CCC3(C)C(=CCC4C5(C)C[C@@H](O)[C@H](O)C(C)(C)C5CCC43C)C2[C@H]1C` (some centres unmarked) [Corosolic acid], the inhibition at 20 µg/mL in assay [1] was approximately 85%. In addition, the “reduced invasion of E. coli into bladder epithelial cells” value in assay [2] (20 μg/ml, 60 minutes, n=4) came out at 65%; in assay [2] (40 µg/ml, 5 minutes, triplicate, compared to the controls) it was 10%; in assay [2] (40 µg/ml, 15 minutes, triplicate, compared to the controls), 70%; in assay [2] (40 μg/ml, 60 minutes, separate experiments (n=4 to 7)), 90%; in assay [2] (40 µg/ml, 60 minutes, triplicate, compared to the controls), 90%. Also, the “reduction in biofilm pods or IBCs in the bladders of mice” value in assay [3] (experiment 1: C3H/HeN mice, 40 μg/ml intravesical with 30 min pre-incubation, 10^8 CFU, five hours) is 94%. Also, the “reduction in large biofilm pods or large IBCs in the bladders of mice” value in assay [3] (experiment 2: C3H/HeN mice, 40 μg/ml in inoculum, no pre-incubation, 10^7 CFU, six hours) is recorded as approximately 60%. In assay [4] (test compound 100 μg/ml 24 h, no tobramycin, average of three days), the “CFU, Test Compound” value came out at 7.8 loglo CFU. Besides, the “CFU, Tobramycin and Test Compound” value in assay [4] (test compound 100 μg/ml 24 h, then tobramycin 100 μg/ml 2 h, average of three days) was 5.3 loglo CFU.

As for “3-hydroxy-12,20(30) ursadienoic acid [3-hydroxy-12, 20(30) ursadienoic acid]”, in assay [5], the “inhibited biofilm formation of P. aeruginosa PAO1” value is reported as “about 40%” and the “inhibitory effect on the growth of P. aeruginosa PA01” value is given as “no inhibitory effect”.

Echinocystic Acid: in assay [5], the “inhibited biofilm formation of P. aeruginosa PAO1” value is given as approximately 25% and the “inhibitory effect on the growth of P. aeruginosa PA01” value was “no inhibitory effect”.

`C[C@@H]1CC[C@]2(C(=O)O)CC[C@]3(C)C(=CCC4[C@@]5(C)C[C@@H](O)[C@@H](O)C(C)(C)C5CC[C@]43C)C2[C@H]1C` (some centres unmarked) [Pygenic acid A, Pygenic Acid A]: in assay [5], the “inhibited biofilm formation of P. aeruginosa PAO1” value was “about 40%” and the “inhibitory effect on the growth of P. aeruginosa PA01” value was “no inhibitory effect”.

On to `CC(=O)OC1CCC2(C)C(CCC3(C)C2CC=C2[C@@H]4CC(C)(C)CCC4(C(=O)O)CCC23C)C1(C)C` (some centres unmarked) [3-acetyl oleanolic acid], for which, in assay [5], the “inhibited biofilm formation of P. aeruginosa PAO1” value was approximately 50% and the “inhibitory effect on the growth of P. aeruginosa PA01” value is “no inhibitory effect”.

On to `CO[C@H]1/C=C/O[C@@]2(C)Oc3c(C)c(O)c4c(O)c(c(/C=N/N5CCN(C)CC5)c(O)c4c3C2=O)NC(=O)/C(C)=C\C=C\[C@H](C)[C@H](O)[C@@H](C)[C@@H](O)[C@@H](C)[C@H](OC(C)=O)[C@@H]1C` [rifampin], for which, in assay [6] (biofilm, urinary catheters), the “eradication of methicillin-resistant Staphylococcus aureus in a biofilm” value is reported as “unable to eradicate”. The “effect against planktonic, or suspended cells” value in assay [6] (planktonic cells) was “effective”.

Turning to `C=C1CCC2(C(=O)O)CCC3(C)C(=CCC4C5(C)CCC(O)C(C)(C)C5CCC43C)C2C1C` (centres unmarked) [Pygenic acid B, Pygenic Acid B], in assay [5], the “inhibited biofilm formation of P. aeruginosa PAO1” value was approximately 30% and the “inhibitory effect on the growth of P. aeruginosa PA01” value is “no inhibitory effect”.

For the compound `NC[C@H]1O[C@H](O[C@H]2[C@H](O)[C@@H](O[C@H]3O[C@H](CO)[C@@H](O)[C@H](N)[C@H]3O)[C@H](N)C[C@@H]2N)[C@H](N)C[C@@H]1O` [Tobramycin, reference compound], in assay [4] (tobramycin 100 μg/ml 2 h, no test compound, parallel reactor of the experiment), the “CFU, Tobramycin” value is 5.8 loglo CFU and 6.5 loglo CFU and 6.1 loglo CFU and 6.7 loglo CFU and 6.2 loglo CFU.
